Key:
[1] = in vitro reduction of headspace H2S by isothiocyanates (GC-SCD); details: for Peak Area (headspace H2S): 200 ppm H2S in 5 ml PBS pH 7.4, 5 min 37° C.
Method: A stock solution of H2S was prepared by a serial dilution in PBS buffer (pH 7.4), with a final concentration of 200 ppm. Allyl isothiocyanate, benzyl isothiocyanate, ethyl isothiocyanate and 3-methylthiopropyl isothiocyanate (all from Sigma-Aldrich) were dissolved in pure ethanol to form 1.0% of working solution of each. A total of 5 ml PBS buffer containing 200 ppm of H2S in a headspace vial (22 ml volume) was mixed with 0.125, 0.25, 0.5 and 1 mg of each isothiocyanate compound for 5 min at 37° C., respectively. The headspace sample was injected into the GC-SCD by an automatic sampler for VSC analysis. The reduction of headspace concentration of H2S was calculated by the formula below: […]
In view of the results pertaining to allyl isothiocyanate in Table 1, Applicants further evaluated allyl isothiocyanate in vitro for its VSC elimination effect of hydrogen sulfide (H2S). A […] headspace vial containing 5 ml of PBS solution and 200 ppm of H2S was treated with various concentrations of allyl isothiocyanate, respectively (0.25-1.0 mg). In a standard experimental protocol, a stock of hydrogen sulfide solutions were prepared by dissolving c.a. 0.10 g of sodium sulfide in a total of 10 ml phosphate buffer solution (PBS) (pH 7.4). It was further diluted in PBS to produce a working solution contained 200 ppm of H2S in buffer.

[2] = zinc lactate and AITC against VSC mixture, headspace GC-SCD: H2S; details: 1 mg in 5 ml VSC mixture (200 ppm H2S, 40 ppm CH3SH), 37° C. 5 min, FIG. 4
Method: (§1) The final concentrations of H2S and CH3SH in solution were a 200 and 40 ppm, respectively. The final amount of VSC was 1.2 mg in the test vial. Although the headspace concentrations of H2S and CH3SH were well above the level found in a typical foul mouth air (200-500 parts per billion), the total amount of VSC was close to the amount presented in oral cavity. Subsequently, 5 ml of the VSC mixture was kept in a 22 ml tight screw cap headspace vial at 37° C. for 5 min. The headspace sample was injected into a GC column with an SCD detector. […] The large peak area of CH3SH reflects its volatility in the headspace compared with H2S.
(§2) Separately, 1 mg of zinc lactate, or 1 mg of allyl isothiocyanate (AITC), or combination of 1 mg Zinc lactate and 1 mg of AITC were added to each of headspace vial containing 5 ml VSC mixture and equilibrated at 37° C. for 5 min. Each headspace sample was injected into a GC column by a Combi-Pal auto-sampler. The amount of sulfur was analyzed by an Agilent SCD-355 chemoluminescent sulfide detector.

[3] = zinc lactate and AITC against VSC mixture, headspace GC-SCD: CH3SH; details: 1 mg in 5 ml VSC mixture (200 ppm H2S, 40 ppm CH3SH), 37° C. 5 min, FIG. 4
Method: as §1, §2

[4] = in vitro headspace GC-SCD test of zinc salts against H2S; details: 5 ml PBS containing 1 mg H2S, 37° C. 5 min; for reduces the oral malodor produced by hydrogen sulfide (H2S): FIG. 2
Method: In another experiment, 5 ml of PBS solution containing 1 mg of H2S was prepared via a serial dilution in a 22 ml headspace vial for FIG. 2 below. Different amounts of zinc salts were added and mixed at 37° C. for 5 min. The headspace concentration of H2S was analyzed by GC-SCD.

[5] = in vitro headspace GC-SCD test of zinc salts against methyl mercaptan; details: 200 ppm CH3SH in 5 ml PBS pH 7.4, 5 minutes at 37° C., FIG. 1
Method: For evaluation of the efficacy of various zinc salts against specific VSCs, the Applicants established an in vitro method using a headspace gas-chromatograph equipped with a sulfur detector. Thus, a total of 200 ppm of CH3SH in 5 ml of phosphate buffer solution (PBS) was prepared. The pH was maintained at 7.4. […] The headspace sample was injected into a gas chromatograph sulfur chemiluminescence detector (GC-SCD).

[6] = 50 ppm isothiocyanate, 200 ppm H2S
[7] = 100 ppm isothiocyanate, 200 ppm H2S
[8] = 200 ppm isothiocyanate, 200 ppm H2S

In the case of `CSCCCN=C=S` [3-methylthiopropyl isothiocyanate], the “% Reduction of headspace concentration (H2S)” value (shortened to “% Reduction”) [1, 6] is reported as 51%, the “Peak Area (headspace H2S)” value ([1]; 50 ppm isothiocyanate) is reported as 416687277 and the “% Reduction” value [1, 7] is reported as 75%. The “Peak Area (headspace H2S)” value ([1]; 100 ppm isothiocyanate) was 211177117, the “% Reduction” value [1, 8] was 94.5% and the “Peak Area (headspace H2S)” value ([1]; 200 ppm isothiocyanate) was 46897168.
In the case of `C=CCN=C=S` [Allyl isothiocyanate, allyl isothiocyanate], the H2S eliminated [2] is reported as 98%, the CH3SH eliminated [3] is reported as 78% and the “Reduction of H2S” value ([1]; 0.25 mg allyl isothiocyanate, 5 ml PBS, 200 ppm H2S) is reported as 49.0%. For the same compound, the “Reduction of H2S” value ([1]; 0.5 mg allyl isothiocyanate, 5 ml PBS, 200 ppm H2S) was 98.4%, the “Reduction of H2S” value ([1]; 1 mg allyl isothiocyanate, 5 ml PBS, 200 ppm H2S) was 99.5% and the “% Reduction” value [1, 6] was 49%. For the same compound, the “Peak Area (headspace H2S)” value ([1]; 50 ppm isothiocyanate) was 431713256, the “% Reduction” value [1, 7] was 98.4% and the “Peak Area (headspace H2S)” value ([1]; 100 ppm isothiocyanate) was 13651581. For the same compound, the “% Reduction” value [1, 8] was 99.5%, the “Peak Area (headspace H2S)” value ([1]; 200 ppm isothiocyanate) was 4266119 and the “Reduction of H2S” value ([1]; at 100 ppm or greater) was “greater than 90%”.
For `S=C=NCc1ccccc1` [Benzyl isothiocyanate, benzyl isothiocyanate], the “% Reduction” value ([1]; 25 ppm isothiocyanate, 200 ppm H2S) was 42%, the “Peak Area (headspace H2S)” value ([1]; 25 ppm isothiocyanate) was 491908604 and the “% Reduction” value [1, 6] was 53%. For the same compound, the “Peak Area (headspace H2S)” value ([1]; 50 ppm isothiocyanate) was 398519292 and the “% Reduction” value ([1]; 50 ppm isothiocyanate, 200 ppm H2S, listed as benzyl isothiocyanate) was “greater than 50%”.
For `CCN=C=S` [Ethylisothiocyanate, ethyl isothiocyanate], the “% Reduction” value [1, 6] was −13%, the “Peak Area (headspace H2S)” value ([1]; 50 ppm isothiocyanate) was 963110533 and the “% Reduction” value [1, 7] was 14.9%. The “Peak Area (headspace H2S)” value ([1]; 100 ppm isothiocyanate) was 726258436, the “% Reduction” value [1, 8] was 68% and the “Peak Area (headspace H2S)” value ([1]; 200 ppm isothiocyanate) was 271822727. The “% Reduction” value ([1]; 200 ppm isothiocyanate, 200 ppm H2S, listed as ethylisothiocyanate) was 68%.
With `CC(O)C(=O)[O-].CC(O)C(=O)[O-].[Zn+2]` (stereo not drawn) [zinc lactate] the H2S eliminated [2] was 98%, the “reduces the oral malodor produced by hydrogen sulfide (H2S)” value (shortened to “reduces the oral malodor produced”) [4] was “reduces” and the “amount of zinc salt above which H2S is reduced” value ([4]; in vitro) was “greater than 0.25 mg”. The CH3SH eliminated [3] was 0% and the “reducing the headspace concentration of methyl mercaptan (CH3SH)” value [5] was “ineffective”.
With zinc ascorbate the “reduces the oral malodor produced” value [4] was “reduces”.
With zinc gluconate the “reduces the oral malodor produced” value [4] was “reduces” and the “reducing the headspace concentration of methyl mercaptan (CH3SH)” value [5] was “ineffective”.
With zinc hydrogen aspartate the “reduces the oral malodor produced” value [4] was “reduces”.
